Laboratory results published in BindingDB's records for doi:10.1016/j.bioorg.2014.05.003 (Comsats Institute of Information Technology, 2014).

Target: Alpha-glucosidase MAL12 (Saccharomyces cerevisiae (strain ATCC 204508 / S288c), UniProt P53341)
Assay: Glucosidase assay
Conditions: pH 6.8; 37 °C
Method: Reaction mixture (100 µL) contained 70 µL 50 mM Na2HPO4 buffer, pH 6.8, 10 µL test compound (0.5 mM), followed by the addition of 10 µL enzyme (0.0234 units). The mixture was pre-incubated for 10 min at 37 °C and pre-read at 400 nm. The reaction was initiated by the addition of 10 µL of 0.5 mM substrate (p-nitrophenyl glucopyranoside) and incubated at 37 °C for 30 min. The absorbance of p-nitrophenol was measured at 400 nm.

Alpha-glucosidase MAL12, sequence (P53341 whole entry): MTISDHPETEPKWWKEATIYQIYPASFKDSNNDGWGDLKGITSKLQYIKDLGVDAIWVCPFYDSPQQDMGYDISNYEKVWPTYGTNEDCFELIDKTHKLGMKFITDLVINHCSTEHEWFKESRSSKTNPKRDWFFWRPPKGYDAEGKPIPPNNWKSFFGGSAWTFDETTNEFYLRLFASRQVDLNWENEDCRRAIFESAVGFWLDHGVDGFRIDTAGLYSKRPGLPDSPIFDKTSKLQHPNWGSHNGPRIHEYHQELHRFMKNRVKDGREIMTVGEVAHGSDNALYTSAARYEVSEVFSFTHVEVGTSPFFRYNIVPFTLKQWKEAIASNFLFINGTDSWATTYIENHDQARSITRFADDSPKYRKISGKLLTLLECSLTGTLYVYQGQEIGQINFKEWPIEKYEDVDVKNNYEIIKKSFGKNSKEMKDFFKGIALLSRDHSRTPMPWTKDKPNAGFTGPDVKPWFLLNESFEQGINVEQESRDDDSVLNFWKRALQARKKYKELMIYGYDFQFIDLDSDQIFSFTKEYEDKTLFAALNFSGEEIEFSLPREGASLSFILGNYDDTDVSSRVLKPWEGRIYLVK

| SMILES | IC50 |
| --- | --- |
| CCOC(=O)[C@H]1[C@@H]2NC(=O)NC1(C)Oc1ccccc12 [(+-)2,6-Methano-4-oxo-3,4,5,6-tetrahydro-2H-[1,3,5]benzoxadiazocines (4d)] | 122 µM |
| CCOC(=O)C1C(C)=NC(=O)NC1c1ccccc1 (stereo unspecified) [Ethyl 6-methyl-2-oxo-4-phenyl-1,2,3,4-tetrahydropyrimidine-5-carboxylate (4a)] | 143 µM |
| CCOC(=O)C1C(C)=NC(=S)NC1c1ccc(C)cc1 (stereo unspecified) [Ethyl 6-methyl-4-(4-methylphenyl)-2-thioxo-1,2,3,4-tetrahydropyrimidine-5-carboxylate (4l)] | 125 µM |

Second part, the molecule after the results:

| IC50 | SMILES |
| --- | --- |
| 213 µM | CCOC(=O)C1C(C)=NC(=O)NC1c1ccc(Cl)cc1 (stereo unspecified) [Ethyl 4-(4-chlorophenyl)-6-methyl-2-oxo-1,2,3,4-tetrahydropyrimidine-5-carboxylate (4b)] |
| 305 µM | CCOC(=O)C1C(C)=NC(=O)NC1c1ccc(O)c(OC)c1 (stereo unspecified) [Ethyl 4-(4-hydroxy-3-methoxyphenyl)-6-methyl-2-oxo-1,2,3,4-tetrahydropyrimidine-5-carboxylate (4e)] |
| 112 µM | CCOC(=O)C1C(C)=NC(=O)NC1c1ccc(C)cc1 (stereo unspecified) [Ethyl 6-methyl-4-(4-methylphenyl)-2-oxo-1,2,3,4-tetrahydropyrimidine-5-carboxylate (4f)] |
